Test results from ChEMBL document CHEMBL1667861, “Kinetic and docking studies of phenol-based inhibitors of carbonic anhydrase isoforms I, II, IX and XII evidence a new binding mode within the enzyme active site” (Bioorg Med Chem, 2011).

Experiments:
Carbonic anhydrase 9 = Carbonic anhydrase 9 (Homo sapiens, UniProt Q16790); assay: Inhibition of human carbonic anhydrase 9 preincubated for 15 mins by CO2 hydration stopped-flow assay
Carbonic anhydrase 2 = Carbonic anhydrase 2 (Homo sapiens, UniProt P00918); assay: Inhibition of human carbonic anhydrase 2 preincubated for 15 mins by CO2 hydration stopped-flow assay
Carbonic anhydrase 1 = Carbonic anhydrase 1 (Homo sapiens, UniProt P00915); assay: Inhibition of human carbonic anhydrase 1 preincubated for 15 mins by CO2 hydration stopped-flow assay
Carbonic anhydrase 1, sequence (P00915 whole entry): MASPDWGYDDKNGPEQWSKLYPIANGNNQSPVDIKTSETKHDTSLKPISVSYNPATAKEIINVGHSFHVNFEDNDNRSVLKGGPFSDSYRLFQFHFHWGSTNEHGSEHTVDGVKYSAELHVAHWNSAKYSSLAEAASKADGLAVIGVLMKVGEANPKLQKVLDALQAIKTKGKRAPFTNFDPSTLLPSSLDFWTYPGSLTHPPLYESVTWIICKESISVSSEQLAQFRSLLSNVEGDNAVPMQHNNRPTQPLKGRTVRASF

Carbonic anhydrase 12 = Carbonic anhydrase 12 (Homo sapiens, UniProt O43570)
Carbonic anhydrase 12, sequence (O43570 whole entry): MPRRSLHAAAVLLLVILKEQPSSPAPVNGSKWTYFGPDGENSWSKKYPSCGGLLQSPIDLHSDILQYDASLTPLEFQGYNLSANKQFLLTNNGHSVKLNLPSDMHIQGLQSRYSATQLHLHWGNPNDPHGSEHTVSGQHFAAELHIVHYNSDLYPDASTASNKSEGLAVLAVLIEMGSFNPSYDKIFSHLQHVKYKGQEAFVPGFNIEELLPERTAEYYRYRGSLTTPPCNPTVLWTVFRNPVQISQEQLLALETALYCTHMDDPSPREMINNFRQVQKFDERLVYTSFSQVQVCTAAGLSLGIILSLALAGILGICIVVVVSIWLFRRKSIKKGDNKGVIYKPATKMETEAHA

SMILES	Ki (Carbonic anhydrase 9)	Ki (Carbonic anhydrase 2)	Ki (Carbonic anhydrase 1)	Ki (Carbonic anhydrase 12)
COc1ccc(OC)c(OC)c1 [1,2,4-TRIMETHOXYBENZENE]	4.06 µM	–	–	–
COc1ccc(OC)cc1 [1,4-DIMETHOXYBENZENE]	–	3.35 µM	–	–
O=C(O)c1cc(O)cc(O)c1 [3,5-DIHYDROXYBENZOIC ACID]	4.41 µM	–	0.55 µM	3.67 µM
O=C(O)c1cccc(O)c1 [3-HYDROXYBENZOIC ACID]	4.53 µM	0.6 µM	2.37 µM	3.53 µM
O=C(O)c1ccc(O)c(O)c1 [PROTOCATECHUIC ACID]	4.45 µM	–	1.08 µM	4.09 µM
COc1ccc(C(=O)O)cc1OC [VERATRIC ACID]	8.25 µM	6.18 µM	6.83 µM	6.7 µM
